{"source": "patent US20090208425A1", "about": "“TRANSMUCOSAL ADMINISTRATION OF 2,3-DIMETHOXY-5-METHYL-6-(10-HYDROXYDECYL)-1,4-BENZOQUINONE” (SANTHERA PHARMACEUTICALS (SCHWEIZ) AG, priority 2006, published 2009)", "key": {"[1]": {"settings": "536 patients, up to 360 mg idebenone t.i.d.; cited from earlier work"}, "[2]": {"assay": "Pharmacokinetics after sublingual (oromucosal) vs. oral delivery of idebenone micro-emulsion in dogs", "assay_type": "in vivo, Beagle dogs", "settings": "for Cmax / Tmax / AUC(0-t): beagle, dog, mean; for AUC(0-t): read-out: AUC0-480 of idebenone (converted)", "method": "Quantification of idebenone was performed by liquid chromatography (LC) coupled on-line with tandem mass spectrometry (MS/MS). Calibration samples were prepared in human plasma and quality control (QC) samples were prepared in dog plasma.\n150 μl of dog plasma were treated with 10 μl of an EDTA solution, prepared by dissolution of 1245 mg EDTA-potassium salt in 33 ml of 1M NH4OAc, and 300 μl of Methanol. After vigorous shaking, samples were centrifuged for 45 minutes with 1960 RCF at 4° C. A 50 μl aliquot of the supernatant was injected into the LC-MS/MS system. All unknown, calibration and QC samples were subjected to the same assay procedure.\nIdebenone was separated and quantified by HPLC-MS/MS: For HPLC, a Synergi™ 4μ MAX-RP (50×2 mm) column (Phenomenex, Schlieren, Switzerland) was used. Column temperature: 50° C. Mobile phase A: water+30 mM NH4OAc; mobile phase B: MeOH/H2O 100/3 (v/v)+30 mM NH4OAc, gradient elution (table 4). Flow: 250 μl/min and 400 μl/min.\nOnce separated, idebenone was quantified by ESI-MS/MS (API 4000, Perkin-Elmer-Europe BV, Rotkreuz, Switzerland) in positive mode.\nIdebenone conjugates such as glucuronates and sulphates have been quantified after acidic hydrolysis as described by R. Artuch, C. Colomé, M. A. Vilaseca, A. Aracil. M. Pineda, J. Neurosci. Meth. 115 (2002), 63-66.\nPlasma levels of idebenone were studied after the administration of a micro-emulsion, prepared as described in example 1, to dogs (n=3). The sublingual administration of 4 mg/kg was compared with 40 mg/kg oral administration in a cross-over design. Blood samples were collected for 8 hours after administration. Concentrations of idebenone in plasma were measured by HPLC-MS/MS as described in example 4 and pharmacokinetic parameters were calculated.\nThe pharmacokinetic analysis included maximum plasma concentration (Cmax), the time when maximum plasma concentration was observed (Tmax), and the area under the plasma concentrations versus time curve from time 0 h to 480 min (AUC0-480min). The relative bioavailability of idebenone after sublingual administration compared to the oral administration was calculated for each dog from normalized (1 mg/kg) AUC values. The AUC ratios of the metabolites were also calculated. In addition, Cmax ratios, normalized to a 1 mg/kg dose, were calculated."}, "[3]": {"assay": "First-pass hepatic metabolism of idebenone after oral administration", "assay_type": "in vivo", "settings": "after absorption in the gut (oral administration)", "from_the_text": "As a lipophilic compound idebenone is well absorbed in the gastrointestinal tract after conventional oral administration, which is the normal route for administering said compound. Dosage forms such as tablets or capsules have been used in clinical trials and as marketed product. In the course of our investigations on the pharmacological profile of idebenone, we discovered that the compound, after being absorbed in the gut, is metabolized very quickly during its first passage through the liver (“first-pass-effect”). […] Hepatic metabolism of idebenone results in side chain oxidation, reduction of the quinone ring, sulphate and glucuronide conjugation and subsequent renal excretion. The high first-pass-effect leads to a fast reduction of pharmacologically active plasma levels of free idebenone. Because of this strong first pass metabolism, oral administration of idebenone requires high doses of the compound to achieve pharmacologically efficacious plasma levels in the body. Said high doses can result in unwanted side effects such as diarrhea."}, "[4]": {"settings": "4 mg/kg oro-mucosal (sublingual), micro-emulsion of example 1, dogs n=3, plasma"}, "[5]": {"settings": "40 mg/kg oral (p.o.), dogs n=3, plasma"}, "[6]": {"settings": "oromucosal (4 mg/kg) vs. oral (40 mg/kg), normalized to a 1 mg/kg dose, dogs"}}, "note": "Like-named read-outs stand apart in the source and are kept apart here.", "data": [{"smiles": "COC1=C(OC)C(=O)C(CCCCCCCCCCO)=C(C)C1=O", "note": "[idebenone, 2,3-dimethoxy-5-methyl-6-(10-hydroxydecyl)-1,4-benzoquinone]", "values": [{"measurement": "treatment emergent adverse events compared to placebo", "setting": "[1]", "value": "no treatment emergent adverse events except some gastrointestinal irritations as well as a slight increase in orthopedic events"}, {"measurement": "Cmax", "setting": "[2]; [4]", "value": 106, "unit": "ng/mL"}, {"measurement": "Tmax", "setting": "[2]; [4]", "value": 6.3, "unit": "min"}, {"measurement": "AUC(0-t)", "setting": "[2]; [4]", "value": 21.1, "unit": "ng·h/mL"}, {"measurement": "Cmax", "setting": "[2]; [5]", "value": 31.9, "unit": "ng/mL"}, {"measurement": "Tmax", "setting": "[2]; [5]", "value": 22.7, "unit": "min"}, {"measurement": "AUC(0-t)", "setting": "[2]; [5]", "value": 18, "unit": "ng·h/mL"}, {"measurement": "AUC ratio, idebenone (normalized for dose)", "setting": "[2]; [6]", "value": 11.1}, {"measurement": "Cmax ratio, idebenone (normalized for dose)", "setting": "[2]; [6]", "value": 36.8}, {"measurement": "idebenone metabolized during its first passage through the liver", "setting": "[3]", "value": "more than 98%"}]}]}
